How the values were obtained:
[1] = Quantum yield measurements; format: physicochemical; conditions: referred to Rhodamine B in EtOH, excitation 510 nm, emission integrated 540-800 nm
Procedure, shortened: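 Integrated fluorescence emission from 540 to 800 nm was referenced to Rhodamine B in EtOH (Φ=0.70) after excitation at 510 nm. Quantum yield was calculated with correction for solvent refractive index and absorbance at the excitation wavelength.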

[2] = Spectroscopic properties of the BDM library (absorbance and emission maxima); format: physicochemical
[3] = in EtOH, excitation at 510 nm; cited from earlier work

SMILES	φ (quantum yield) [1]	λmax (ABS) [2] [nm]	λmax (EM) [2] [nm]	Quantum yield of standard (ΦRho-B) [3]
CC1=CC(/C=C/c2cc(C)c(C)cc2C)=[N+]2C1=C(CCN)c1cccn1[B-]2(F)F [BDM-343]	0.28	559	577	–
CC1=CC(/C=C/c2cccc(OC(F)(F)C(F)F)c2)=[N+]2C1=C(CCN)c1cccn1[B-]2(F)F [BDM-345]	0.22	551	564	–
COc1ccc(/C=C/C2=[N+]3C(=C(CCN)c4cccn4[B-]3(F)F)C(C)=C2)c(OC)c1C [BDM-347]	0.57	566	591	–
COc1ccc(/C=C/C2=[N+]3C(=C(CCN)c4cccn4[B-]3(F)F)C(C)=C2)cc1[N+](=O)[O-] [BDM-350]	0.14	556	571	–
CC1=CC(/C=C/c2cccc(N3CCCCC3)c2[N+](=O)[O-])=[N+]2C1=C(CCN)c1cccn1[B-]2(F)F [BDM-356]	0.03	573	682	–
CC1=CC(/C=C/c2cccc(N3CCCC3)c2[N+](=O)[O-])=[N+]2C1=C(CCN)c1cccn1[B-]2(F)F [BDM-357]	0.04	585	687	–
COc1ccc(/C=C/C2=[N+]3C(=C(CCN)c4cccn4[B-]3(F)F)C(C)=C2)c(F)c1 [BDM-359]	0.83	559	574	–
CC1=CC(/C=C/c2ccc(SC(F)(F)F)cc2)=[N+]2C1=C(CCN)c1cccn1[B-]2(F)F [BDM-363]	0.51	553	564	–
CC1=CC(/C=C/c2ccccc2OC(F)(F)F)=[N+]2C1=C(CCN)c1cccn1[B-]2(F)F [BDM-365]	0.24	549	563	–
CC1=CC(/C=C/c2ccsc2)=[N+]2C1=C(CCN)c1cccn1[B-]2(F)F [BDM-369]	0.30	554	570	–
CC1=CC(/C=C/c2ccc(-c3ccc(Cl)cc3)o2)=[N+]2C1=C(CCN)c1cccn1[B-]2(F)F [BDM-371]	0.03	590	630	–
COc1ccc(/C=C/C2=[N+]3C(=C(CCN)c4cccn4[B-]3(F)F)C(C)=C2)c(Cl)c1OC [BDM-372]	0.55	561	578	–
CC1=CC(/C=C/c2ccc(N(C)C)c3ccccc23)=[N+]2C1=C(CCN)c1cccn1[B-]2(F)F [BDM-377]	0.04	586	–	–
CC1=CC(/C=C/c2ccc(OCc3ccc(F)cc3)cc2)=[N+]2C1=C(CCN)c1cccn1[B-]2(F)F [BDM-378]	0.41	563	585	–
CC1=CC(/C=C/c2ccccc2I)=[N+]2C1=C(CCN)c1cccn1[B-]2(F)F [BDM-384]	0.32	551	565	–
CC1=CC(/C=C/c2cccc(C=O)c2)=[N+]2C1=C(CCN)c1cccn1[B-]2(F)F [BDM-391]	0.31	554	563	–
CCOc1cc(/C=C/C2=[N+]3C(=C(CCN)c4cccn4[B-]3(F)F)C(C)=C2)ccc1O [BDM-397]	0.10	570	614	–
COC(=O)c1cc(OC)cc(OC)c1/C=C/C1=[N+]2C(=C(CCN)c3cccn3[B-]2(F)F)C(C)=C1 [BDM-401]	0.85	565	590	–
CC1=CC(/C=C/c2ccc(Br)cc2)=[N+]2C1=C(CCN)c1cccn1[B-]2(F)F [BDM-409]	0.12	558	570	–
CC1=CC(/C=C/c2ccc(-c3ccccc3)c(F)c2)=[N+]2C1=C(CCN)c1cccn1[B-]2(F)F [BDM-425]	0.12	562	576	–
CCOc1ccc(/C=C/C2=[N+]3C(=C(CCN)c4cccn4[B-]3(F)F)C(C)=C2)cc1 [BDM-429]	0.23	564	586	–
CC1=CC(/C=C/c2c(C)nn(C)c2C)=[N+]2C1=C(CCN)c1cccn1[B-]2(F)F [BDM-430]	0.99	565	592	–
CC1=CC(/C=C/c2ccc(Oc3ccc(C(C)(C)C)cc3)cc2)=[N+]2C1=C(CCN)c1cccn1[B-]2(F)F [BDM-435]	0.39	555	565	–
CC1=CC(/C=C/c2ccc(Cl)c(F)c2)=[N+]2C1=C(CCN)c1cccn1[B-]2(F)F [BDM-437]	0.21	555	566	–
CC1=CC(/C=C/c2cc3ccccc3c3ccccc23)=[N+]2C1=C(CCN)c1cccn1[B-]2(F)F [BDM-440]	0.37	563	589	–
CCN(CC)c1ccc2c(-c3ccccc3C(=O)O)c3ccc(=[N+](CC)CC)cc-3oc2c1.[Cl-] [Rhodamine B]	–	–	–	0.70
